Drawing on PMC11754080 (iScience, 2024), this text covers Kd for one compound.

Common to all, as to test: microscale thermophoresis
What all share (format): binding

Experiment [1] deals with T1, septin6 (Homo sapiens, UniProt Q14141).
T1 sequence (Q14141 2-434): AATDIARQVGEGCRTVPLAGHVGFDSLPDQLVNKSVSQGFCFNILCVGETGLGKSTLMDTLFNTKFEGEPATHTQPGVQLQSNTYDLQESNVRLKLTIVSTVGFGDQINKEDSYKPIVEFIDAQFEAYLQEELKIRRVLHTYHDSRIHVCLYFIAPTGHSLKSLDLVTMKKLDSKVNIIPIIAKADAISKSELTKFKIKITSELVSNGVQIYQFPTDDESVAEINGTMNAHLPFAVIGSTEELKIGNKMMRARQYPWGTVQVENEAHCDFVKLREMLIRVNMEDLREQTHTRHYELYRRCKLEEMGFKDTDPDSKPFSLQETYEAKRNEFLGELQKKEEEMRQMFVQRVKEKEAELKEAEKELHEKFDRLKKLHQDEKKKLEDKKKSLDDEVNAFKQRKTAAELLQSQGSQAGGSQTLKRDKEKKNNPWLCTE

Experiment [2] addresses T2, septin2 (Homo sapiens, UniProt Q15019).
T2 sequence (Q15019 1-361): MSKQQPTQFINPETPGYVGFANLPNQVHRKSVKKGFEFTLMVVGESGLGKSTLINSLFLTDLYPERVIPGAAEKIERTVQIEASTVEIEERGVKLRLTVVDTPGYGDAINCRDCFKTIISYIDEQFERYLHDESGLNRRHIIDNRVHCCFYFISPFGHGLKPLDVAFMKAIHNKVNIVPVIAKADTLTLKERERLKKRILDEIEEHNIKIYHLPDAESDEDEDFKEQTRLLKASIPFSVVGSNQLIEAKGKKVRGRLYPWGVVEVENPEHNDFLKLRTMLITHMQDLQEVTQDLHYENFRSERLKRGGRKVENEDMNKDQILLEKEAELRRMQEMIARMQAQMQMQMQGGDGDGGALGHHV

The target in experiment [3] is T3, septin7 (Homo sapiens, UniProt Q16181).
T3 sequence (Q16181 2-437): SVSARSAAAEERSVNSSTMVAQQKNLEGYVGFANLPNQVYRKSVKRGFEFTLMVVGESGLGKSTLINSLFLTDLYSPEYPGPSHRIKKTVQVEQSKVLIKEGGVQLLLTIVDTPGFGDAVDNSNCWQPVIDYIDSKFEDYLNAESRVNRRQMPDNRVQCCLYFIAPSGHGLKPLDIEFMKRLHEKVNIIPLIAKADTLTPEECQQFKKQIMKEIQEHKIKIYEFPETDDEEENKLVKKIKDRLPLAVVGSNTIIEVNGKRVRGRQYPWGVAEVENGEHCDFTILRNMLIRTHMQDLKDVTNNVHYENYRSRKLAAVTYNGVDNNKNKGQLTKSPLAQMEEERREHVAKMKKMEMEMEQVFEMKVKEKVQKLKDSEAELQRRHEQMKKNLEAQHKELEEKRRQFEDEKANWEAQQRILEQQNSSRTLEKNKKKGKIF

As to `OC1(c2ccc(Cl)c(C(F)(F)F)c2)CCN(CCCC(c2ccc(F)cc2)c2ccc(F)cc2)CC1` [PFD, penfluridol], the values for the Kd in experiment [1], in experiment [2] and in experiment [3] were 43.1 µM, 54.8 µM and 0.98 µM, respectively.

In general, Kd refers to the constant that tells how readily two partners part at equilibrium.
